{
  "source": "patent US9597436B2",
  "about": "“Advanced heart failure treatment material as myocardial/cardiovascular regeneration device” (Osaka University, priority 2012, dated 2017)",
  "key": {"[1]": {"test_system": "coculture of NHDF and HUVEC", "assay": "Internal regeneration factors under coculture of NHDF and HUVEC", "assay_type": "cell-based, human", "text": "The compound 1 is a low molecular […] having the non-PG skeleton, and TXA2 synthase inhibitory action as well as selective IP agonist action is integrated into the molecule."}, "[2]": {"test_system": "acute hepatopathy induced by carbon tetrachloride", "conditions": "cited from earlier work"}, "[3]": {"test_system": "fibroblasts", "conditions": "cited from earlier work"}},
  "data": [
    {"compound": "O=C(O)COc1cccc2c1CCC=C2CCO/N=C(\\c1ccccc1)c1cccnc1", "note": "[Compound 1, (E)-[5-[2-[1-phenyl-1-(3-pyridyl)methylideneaminoxy]ethyl]-7,8-dihydronaphthalen-1-yloxy]acetic acid]", "values": [
      {"measurement": "internal regeneration factors (HGF, VEGF, EGF, IGF-1, SDF-1, G-CSF)", "setting": "[1]", "result": "indicates various types of internal regeneration factors"},
      {"measurement": "hepatocyte protection (anti-apoptotic and anti-necrosis action)", "setting": "[2]", "result": "exhibits hepatocyte protection effects"},
      {"measurement": "increases in ALT and AST in blood", "setting": "[2]", "result": "suppresses"},
      {"measurement": "migration, proliferation, and collagen production of fibroblasts", "setting": "[3]", "result": "suppresses"},
      {"measurement": "phosphorylation of ERK1/2", "setting": "[3]; progressed due to pathology, by activation of cAMP/PKA", "result": "suppresses"}
    ]}
  ]
}
